Test results reported in patent publication US3961075A, “Ether-linked quaternary ammonium compositions” (Colgate-Palmolive Company, priority 1975, dated 1976).

Tests used:
Type in all cases: cell-based
S. aureus = assay: standard test tube serial dilution test, S. aureus; conditions: Staphylococcus aureus, broth serial dilution, read-out: Minimum Inhibitory Concentration
Protocol: (§1) The anti-microbial nature of the instant novel compounds was shown by a standard test tube serial dilution test in which an appropriate number of test tubes of broth containing decreasing concentrations of the test agent was innoculated with the test organism. After a suitable period of incubation, the tubes were examined for the presence or absence of growth. The activity of the test agent was the lowest concentration which inhibited the growth of the organism and is expressed as the minimal inhibitory concentration in ug/ml.

Str. mitis = assay: standard test tube serial dilution test, Str. mitis; conditions: Streptococcus mitis, broth serial dilution, read-out: Minimum Inhibitory Concentration
Protocol: as §1

C. albicans = assay: standard test tube serial dilution test, C. albicans; conditions: Candida albicans, broth serial dilution, read-out: Minimum Inhibitory Concentration
Protocol: as §1

P. ovale = assay: standard test tube serial dilution test, P. ovale; conditions: broth serial dilution, read-out: Minimum Inhibitory Concentration
Protocol: as §1

T. mentagrophytes = assay: standard test tube serial dilution test, T. mentagrophytes; conditions: Trichophyton mentagrophytes, broth serial dilution, read-out: Minimum Inhibitory Concentration
Protocol: as §1

Ps. aeruginosa = assay: standard test tube serial dilution test, Ps. aeruginosa; conditions: Pseudomonas aeruginosa, broth serial dilution, read-out: Minimum Inhibitory Concentration
Protocol: as §1

A. niger = assay: standard test tube serial dilution test, A. niger; conditions: Aspergillus niger, broth serial dilution, read-out: Minimum Inhibitory Concentration
Protocol: as §1

E. coli = assay: standard test tube serial dilution test, E. coli; conditions: Escherichia coli, broth serial dilution, read-out: Minimum Inhibitory Concentration
Protocol: as §1

How did the MIC (S. aureus) turn out when `CCCCCCCCCCCC[N+](C)(C)CCOC12CC3CC(CC(C3)C1)C2` [C12 H25, 2-(1^1-adamantyloxy)ethyldimethyldodecyl ammonium bromide] was run?
The MIC was 0.39 mg/L.

What about the MIC (Str. mitis) of the same molecule?
The MIC was 0.19 mg/L.

And the MIC (C. albicans)?
Its MIC is 1.56 mg/L.

What about the MIC (P. ovale) of the same molecule?
The MIC was over 50 mg/L.

What about the MIC (T. mentagrophytes) of the same molecule?
The MIC was 3.12 mg/L.

What about the MIC (Ps. aeruginosa) of the same molecule?
The MIC was over 25 mg/L.

And the MIC (A. niger)?
Its MIC is 50 mg/L.

What about the MIC (E. coli) of the same molecule?
Its MIC is 12.5 mg/L.

With `CCCCCCCCCCCCCC[N+](C)(C)CCOC12CC3CC(CC(C3)C1)C2` [C14 H29, 2(1^1 -adamantyloxy)ethyldimethyltetradecylammonium bromide] as the molecule, how does the MIC (S. aureus) read?
The MIC was 0.78 mg/L.

And the MIC (Str. mitis)?
Its MIC is 0.39 mg/L.

What about the MIC (C. albicans) of the same molecule?
The MIC was 1.56 mg/L.

What about the MIC (P. ovale) of the same molecule?
Its MIC is over 50 mg/L.

What about the MIC (T. mentagrophytes) of the same molecule?
Its MIC is 6.25 mg/L.

What about the MIC (Ps. aeruginosa) of the same molecule?
Its MIC is over 25 mg/L.

What about the MIC (A. niger) of the same molecule?
Its MIC is 50 mg/L.

And the MIC (E. coli)?
The MIC was 12.5 mg/L.
